Experimental data published in patent publication US8501946B2 (Glaxo Group Limited, priority 2009, dated 2013).

Target: T1, human recombinant P2X7 receptors (Homo sapiens, UniProt Q99572)
T1 construct: expressed in transfected cells
T1 sequence (Q99572 1-595): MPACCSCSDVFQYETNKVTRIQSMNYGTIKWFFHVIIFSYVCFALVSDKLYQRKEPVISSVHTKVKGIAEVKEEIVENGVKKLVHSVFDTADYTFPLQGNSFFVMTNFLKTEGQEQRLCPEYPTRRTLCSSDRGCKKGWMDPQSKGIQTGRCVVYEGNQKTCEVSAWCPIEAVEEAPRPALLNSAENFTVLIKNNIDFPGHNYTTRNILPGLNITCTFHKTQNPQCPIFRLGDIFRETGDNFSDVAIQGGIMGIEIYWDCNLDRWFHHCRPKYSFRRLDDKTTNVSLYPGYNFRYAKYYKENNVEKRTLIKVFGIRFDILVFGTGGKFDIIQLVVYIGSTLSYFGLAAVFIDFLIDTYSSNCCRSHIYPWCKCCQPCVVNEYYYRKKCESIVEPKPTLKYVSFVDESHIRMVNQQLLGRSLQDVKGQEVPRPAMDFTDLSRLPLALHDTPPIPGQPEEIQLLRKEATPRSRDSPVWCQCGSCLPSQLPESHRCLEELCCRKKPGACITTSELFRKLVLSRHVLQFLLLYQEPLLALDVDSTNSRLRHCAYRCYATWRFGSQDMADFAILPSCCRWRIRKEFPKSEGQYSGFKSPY
Experiment: Ethidium Accumulation Assay 2 (HEK293 cells, ATP-induced ethidium uptake)
Type: cell-based
Details: HEK293 cells expressing human P2X7; sometimes mean of more than one measurement; read-out: Assay 2 (antagonist pIC50 for blocking ATP responses) (converted)
Protocol: Eithidium Accumulation Assay 2
Human Embryonic Kidney (HEK) 293 cells, stably expressing human recombinant P2X7 receptors, were grown in poly-D-lysine pretreated 96 well plates for 24 hours at 37° C.
The cells were washed with assay buffer (100 μL), before addition of 25 μL of assay buffer and then 25 ul of assay buffer containing the putative P2X7 receptor antagonist compound. The cells were then incubated at room temperature (19-21° C.) for 30 min before addition of ATP solution (50 μM). […] Antagonist pIC50 values for blocking ATP responses were determined using iterative curve fitting techniques.

IC50 [nM] | Structure (SMILES)
< 10 | O=C(c1ccc(Cl)c(F)c1Cl)N1CCn2c(nnc2-c2ccccn2)C1 [Example 173, 7-[(2,4-dichloro-3-fluorophenyl)carbonyl]-3-(2-pyridinyl)-5,6,7,8-tetrahydro[1,2,4]triazolo[4,3-a]pyrazine]
< 100 | O=C(c1ccc(Cl)cc1Cl)N1CCn2c(nnc2-c2nccs2)C1 [Example 199, 7-[(2,4-Dichlorophenyl)carbonyl]-3-(1,3-thiazol-2-yl)-5,6,7,8-tetrahydro[1,2,4]triazolo[4,3-a]pyrazine]
< 10 | [2H]c1ccnc(-c2nnc3n2CCN(C(=O)c2ccc(Cl)c(F)c2Cl)C3)c1 [Example 182, 7-[(2,4-Dichloro-3-fluorophenyl)carbonyl]-3-(2-pyridinyl)-5,6,7,8-tetrahydro[1,2,4]triazolo[4,3-a]pyrazine-d1]
< 100 | O=C(c1ccc(Cl)c(F)c1Cl)N1CCn2c(nnc2-c2cccnc2O)C1 [Example 171, 3-{7-[(2,4-dichloro-3-fluorophenyl)carbonyl]-5,6,7,8-tetrahydro[1,2,4]triazolo[4,3-a]pyrazin-3-yl}-2-pyridinol]
< 100 | Cc1cnc(-c2nnc3n2CCN(C(=O)c2ccc(Cl)c(F)c2Cl)C3)s1 [Example 188, 7-[(2,4-Dichloro-3-fluorophenyl)carbonyl]-3-(5-methyl-1,3-thiazol-2-yl)-5,6,7,8-tetrahydro[1,2,4]triazolo[4,3-a]pyrazine]
< 100 | Cc1scnc1-c1nnc2n1CCN(C(=O)c1cccc(Cl)c1C)C2 [Example 207, 7-[(3-chloro-2-methylphenyl)carbonyl]-3-(5-methyl-1,3-thiazol-4-yl)-5,6,7,8-tetrahydro[1,2,4]triazolo[4,3-a]pyrazine]
< 10 | O=C(c1ccc(F)cc1Br)N1CCn2c(nnc2-c2cnccn2)C1 [Example 147, 7-[(2-bromo-4-fluorophenyl)carbonyl]-3-(2-pyrazinyl)-5,6,7,8-tetrahydro[1,2,4]triazolo[4,3-a]pyrazine]
< 10 | Cc1scnc1-c1nnc2n1CCN(C(=O)c1ccc(Cl)c(F)c1Cl)C2 [Example 197, 7-[(2,4-Dichloro-3-fluorophenyl)carbonyl]-3-(5-methyl-1,3-thiazol-4-yl)-5,6,7,8-tetrahydro[1,2,4]triazolo[4,3-a]pyrazine]
< 10 | COc1ccnc(-c2nnc3n2CCN(C(=O)c2ccc(Cl)c(F)c2Cl)C3)c1 [Example 174, 7-[(2,4-dichloro-3-fluorophenyl)carbonyl]-3-[4-(methyloxy)-2-pyridinyl]-5,6,7,8-tetrahydro[1,2,4]triazolo[4,3-a]pyrazine]
< 100 | O=C(c1ccc(Cl)c(F)c1Cl)N1CCn2c(nnc2-c2ncccc2O)C1 [Example 175, 2-{7-[(2,4-dichloro-3-fluorophenyl)carbonyl]-5,6,7,8-tetrahydro[1,2,4]triazolo[4,3-a]pyrazin-3-yl}-3-pyridinol]
< 100 | O=C(c1ccc(Cl)c(F)c1Cl)N1CCn2c(nnc2-c2ccc(F)cc2O)C1 [Example 150, 2-{7-[(2,4-dichloro-3-fluorophenyl)carbonyl]-5,6,7,8-tetrahydro[1,2,4]triazolo[4,3-a]pyrazin-3-yl}-5-fluorophenol]
< 100 | Cc1ccnc(-c2nnc3n2CCN(C(=O)c2ccc(Cl)c(F)c2Cl)C3)c1 [Example 172, 7-[(2,4-dichloro-3-fluorophenyl)carbonyl]-3-(4-methyl-2-pyridinyl)-5,6,7,8-tetrahydro[1,2,4]triazolo[4,3-a]pyrazine]
< 10 | Cc1ccc(C(=O)N2CCn3c(nnc3-c3cnccn3)C2)c(Cl)c1Cl [Example 152, 7-[(2,3-dichloro-4-methylphenyl)carbonyl]-3-(2-pyrazinyl)-5,6,7,8-tetrahydro[1,2,4]triazolo[4,3-a]pyrazine]
< 10 | O=C(c1ccc(Cl)c(F)c1Cl)N1CCn2c(nnc2-c2ncns2)C1 [Example 186, 7-[(2,4-Dichloro-3-fluorophenyl)carbonyl]-3-(1,2,4-thiadiazol-5-yl)-5,6,7,8-tetrahydro[1,2,4]triazolo[4,3-a]pyrazine]
